This test relates to hyaluronidase. As to the kind of experiment: degradation of hyaluronic acid by standard hyaluronidase. It counts as biochemical. The text has this: In the composition, the nicotinamide is not only a functional excipient adapted to protect the hyaluronic acid by virtue of its antioxidant action, but also acts against the action of the hyaluronidase, allowing the viscosupplementation features to be maintained over time. Experimental tests have shown that in a composition without nicotinamide, the hyaluronic acid is degraded by a 50% standard hyaluronidase after one hour; on the contrary, with a presence of nicotinamide in the percentages described above, the hyaluronic acid degrades by only 20% after one hour, while the normal products on the market degrade by 70%.

`NC(=O)c1cccnc1` [nicotinamide]: the “inhibitory effect on hyaluronidase” value is listed as “inhibitory effect on hyaluronidase”.

The values are drawn from patent US12622863B2, “Injectable composition and use of said composition” (INNATE S.R.L., priority 2020, dated 2026).
